Test results reported in patent publication US20220146526A1, “METHOD FOR EVALUATING SAMPLE, ANALYSIS METHOD, METHOD FOR DETECTING DEGRADED SAMPLE, MARKER FOR DETECTING DEGRADED BLOOD PLASMA SAMPLE, AND MARKER FOR DETECTING DEGRADED SERUM SAMPLE” (SHIMADZU CORPORATION, priority 2019, published 2022).

Legend:
Format in all cases: physicochemical, human
[1] = GC/MS of blood plasma sample: time from blood collection to centrifugation (Table A); conditions: for Rate of increase or decrease: detection intensity relative to 1 at 15 minutes; for Rate of increase or decrease / Increase or decrease: blood collection to centrifugation; for Increase or decrease: detection intensity; for Rate of increase or decrease (second value, decrease) / Rate of increase or decrease (first value, increase): different from individual to individual, relative to 1 at 15 minutes, collection to centrifugation; for Rate of increase or decrease (second value, decrease): individuals with decrease; for Rate of increase or decrease (first value, increase): individuals with increase
Summary of the method: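 Read-out is MRM detection intensity by electron-ionization GC/MS on a BPX5 column after methoxymation and trimethylsilylation, expressed relative to a 15-minute collection-to-centrifugation interval. Plasma was prepared from EDTA blood held at 4° C and spun at 4° C, 3000 rpm for 15 minutes, then frozen.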

[2] = GC/MS of blood plasma sample: number of times of freezing and thawing (Table C); conditions: for Increase or decrease: detection intensity; for Rate of increase or decrease (second value, decrease) / Rate of increase or decrease (first value, increase): different from individual to individual, relative to 1 at 2 times; for Rate of increase or decrease (second value, decrease): individuals with decrease; for Rate of increase or decrease (first value, increase): individuals with increase; for Rate of increase or decrease: detection intensity relative to 1 at 2 times
Summary of the method: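 Values express detection intensity as a ratio to the 2-cycle freeze-thaw sample (=1), compared with 4, 6 and 10 cycles. Healthy-donor EDTA plasma, cooled at ≤1 min or ≥5 min, spun at 4 °C, 3000 rpm, 15 min. Derivatised by methoxymation/trimethylsilylation; GC-MS/MS in MRM mode with electron ionization.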

[3] = GC/MS of serum sample: time from centrifugation to isolation (Table H); parameters: key to Rate of increase or decrease / Rate of increase or decrease (first value, increase): detection intensity relative to 1 at 30 min centrifugation-to-isolation; conditions: for Rate of increase or decrease: detection intensity relative to 1 at 30 minutes; for Increase or decrease: detection intensity
Summary of the method: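 Values are GC/MS (EI, MRM) detection intensities of methoxymated/trimethylsilylated serum, normalised to 1 for the 30-min sample. Serum was isolated 30 min, 1 h or 6 h after room-temperature centrifugation (3500 rpm, 5 min) of blood.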

[4] = GC/MS of serum sample: time from blood collection to centrifugation (Table G); conditions: for Rate of increase or decrease: detection intensity relative to 1 at 15 minutes; for Rate of increase or decrease / Increase or decrease: blood collection to centrifugation; for Increase or decrease: detection intensity; for Rate of increase or decrease (second value, decrease) / Rate of increase or decrease (first value, increase): different from individual to individual, relative to 1 at 15 minutes, collection to centrifugation; for Rate of increase or decrease (second value, decrease): individuals with decrease; for Rate of increase or decrease (first value, increase): individuals with increase
Summary of the method: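 Values express detection intensity as a ratio to the sample centrifuged 15 minutes after blood collection (taken as 1). Serum was derivatized by methoxymation and trimethylsilylation, then analysed by electron-ionization GC/MS using multiple reaction monitoring on a BPX5 column ramped from 60 to 330° C.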

[5] = GC/MS of serum sample: number of times of freezing and thawing (Table I); parameters: key to Rate of increase or decrease / Rate of increase or decrease (first value, increase): detection intensity relative to 2 freeze-thaw cycles = 1; conditions: for Rate of increase or decrease: detection intensity relative to 1 at 2 times
Summary of the method: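 Detection intensities are ratios to the value after two freeze–thaw cycles, which is set as 1, compared against 4, 6 and 10 cycles. Analysis used methoxymation and trimethylsilylation derivatization, then GC/MS with EI ionization and multiple reaction monitoring on a BPX5 column. Serum came from blood held at room temperature and spun at 3500 rpm for 5 min.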

[6] = GC/MS of blood plasma sample: time from blood collection to cooling of blood (Table B); parameters: key to Rate of increase or decrease / Rate of increase or decrease (first value, increase): detection intensity relative to 1 at cooling time ≤1 min; conditions: for Rate of increase or decrease: detection intensity relative to 1 at 1 minute or less, blood collection to cooling 5 minutes; for Increase or decrease: detection intensity, blood collection to cooling 5 minutes or more vs 1 minute or less
Summary of the method: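 Blood drawn at room temperature into EDTA tubes, mixed, then cooled at 4° C. within 1 minute or less versus 5 minutes or more before centrifugation (4° C., 3000 rpm, 15 minutes). Plasma was frozen, methoxymated and trimethylsilylated, and analysed by EI GC/MS in MRM mode. Values are detection intensity relative to the ≤1 minute condition.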

[7] = freezing and thawing 4 times vs 2 times
[8] = serum, GC/MS, freezing and thawing 4 times
[9] = detection intensity, serum, GC/MS, freezing and thawing 4 times vs 2 times

O[C@@H]1[C@@H](O)[C@@H]2OC[C@@H](O2)[C@H]1O [1,6-Anhydroglucose]
Rate of increase or decrease ([1]; after 4 hours): 1.42 | Increase or decrease ([1]; after 4 hours vs 15 minutes): Increase | Increase or decrease [2, 7]: Different from individual | Rate of increase or decrease (second value, decrease) ([2]; freezing and thawing 4 times): 0.42 | Rate of increase or decrease (first value, increase) ([2]; freezing and thawing 4 times): 3.49 | Rate of increase or decrease ([3]; after 1 hour): 2.25 | Increase or decrease ([3]; after 1 hour vs 30 minutes): Increase | Rate of increase or decrease ([4]; after 8 hours): 0.62 | Increase or decrease ([4]; after 8 hours vs 15 minutes): Decrease | Rate of increase or decrease [5, 8]: 2.25 | Increase or decrease [5, 9]: Increase | Rate of increase or decrease [6]: 0.62 | Increase or decrease [6]: Decrease

Oc1ccccn1 [2-Hydroxypyridine]
Rate of increase or decrease ([1]; after 4 hours): 0.57 | Increase or decrease ([1]; after 4 hours vs 15 minutes): Decrease | Increase or decrease [2, 7]: Different from individual | Rate of increase or decrease (second value, decrease) ([2]; freezing and thawing 4 times): 0.54 | Rate of increase or decrease (first value, increase) ([2]; freezing and thawing 4 times): 2.48 | Rate of increase or decrease ([3]; after 1 hour): 1.44 | Increase or decrease ([3]; after 1 hour vs 30 minutes): Increase | Rate of increase or decrease ([4]; after 4 hours): 2.55 | Increase or decrease ([4]; after 4 hours vs 15 minutes): Increase | Rate of increase or decrease [5, 8]: 0.50 | Increase or decrease [5, 9]: Decrease | Rate of increase or decrease [6]: 0.59 | Increase or decrease [6]: Decrease

N[C@@H](CS(=O)O)C(=O)O [3-Sulfinoalanine]
Increase or decrease ([1]; after 4 hours vs 15 minutes): Different from individual | Rate of increase or decrease (second value, decrease) ([1]; after 4 hours): 0.32 | Rate of increase or decrease (first value, increase) ([1]; after 4 hours): 1.88 | Increase or decrease [2, 7]: Different from individual | Rate of increase or decrease (second value, decrease) ([2]; freezing and thawing 4 times): 0.58 | Rate of increase or decrease (first value, increase) ([2]; freezing and thawing 4 times): 1.59 | Rate of increase or decrease ([3]; after 1 hour): 3.07 | Increase or decrease ([3]; after 1 hour vs 30 minutes): Increase | Rate of increase or decrease ([4]; after 4 hours): 1.91 | Increase or decrease ([4]; after 4 hours vs 15 minutes): Increase | Rate of increase or decrease [5, 8]: 0.47 | Increase or decrease [5, 9]: Decrease | Rate of increase or decrease [6]: 0.61 | Increase or decrease [6]: Decrease

O=C(O)CCCCCCCC(=O)O [Azelaic acid]
Rate of increase or decrease ([1]; after 4 hours): 2.03 | Increase or decrease ([1]; after 4 hours vs 15 minutes): Increase | Increase or decrease [2, 7]: Different from individual | Rate of increase or decrease (second value, decrease) ([2]; freezing and thawing 4 times): 0.66 | Rate of increase or decrease (first value, increase) ([2]; freezing and thawing 4 times): 1.45 | Rate of increase or decrease ([3]; after 1 hour): 1.71 | Increase or decrease ([3]; after 1 hour vs 30 minutes): Increase | Rate of increase or decrease ([4]; after 4 hours): 0.51 | Increase or decrease ([4]; after 4 hours vs 15 minutes): Decrease | Rate of increase or decrease ([5]; 10 times of freezing and thawing): 9.39 | Number of times when compound is affected ([5]; serum sample, GC/MS, detection intensity changed by 30% or more vs 2 times of freezing and thawing): 10 times | Increase or decrease ([5]; serum sample, GC/MS, detection intensity vs 2 times of freezing and thawing): Increase | Rate of increase or decrease [6]: 0.67 | Increase or decrease [6]: Decrease

OC[C@@H](O)[C@@H](O[C@@H]1O[C@H](CO)[C@H](O)[C@H](O)[C@H]1O)[C@H](O)[C@@H](O)CO [Lactitol]
Increase or decrease ([1]; after 4 hours vs 15 minutes): Different from individual | Rate of increase or decrease (second value, decrease) ([1]; after 4 hours): 0.22 | Rate of increase or decrease (first value, increase) ([1]; after 4 hours): 3.36 | Rate of increase or decrease ([2]; freezing and thawing 10 times): 1.73 | Increase or decrease ([2]; freezing and thawing 10 times vs 2 times): Increase | Rate of increase or decrease ([3]; after 1 hour): 1.60 | Increase or decrease ([3]; after 1 hour vs 30 minutes): Increase | Rate of increase or decrease ([4]; after 4 hours): 3.20 | Increase or decrease ([4]; after 4 hours vs 15 minutes): Increase | Rate of increase or decrease [6]: 0.67 | Increase or decrease [6]: Decrease

OC[C@H]1O[C@@H](O[C@H]2[C@H](O)[C@@H](O)C(O)O[C@@H]2CO)[C@H](O)[C@@H](O)[C@H]1O (some centres unmarked) [Lactose]
Rate of increase or decrease ([1]; after 12 hours): 0.70 | Increase or decrease ([1]; after 12 hours vs 15 minutes): Decrease | Rate of increase or decrease ([2]; freezing and thawing 4 times): 1.40 | Increase or decrease [2, 7]: Increase | Rate of increase or decrease ([3]; after 1 hour): 2.37 | Rate of increase or decrease ([3]; after 6 hours): 1.43 | Increase or decrease ([3]; after 1 hour vs 30 minutes): Increase | Increase or decrease ([3]; after 6 hours vs 30 minutes): Increase | Increase or decrease ([4]; after 4 hours vs 15 minutes): Different from individual | Increase or decrease ([4]; after 8 hours vs 15 minutes): Different from individual | Rate of increase or decrease (second value, decrease) ([4]; after 4 hours): 0.62 | Rate of increase or decrease (second value, decrease) ([4]; after 8 hours): 0.65 | Rate of increase or decrease (first value, increase) ([4]; after 4 hours): 1.31 | Rate of increase or decrease (first value, increase) ([4]; after 8 hours): 3.99 | Rate of increase or decrease [5, 8]: 1.60 | Rate of increase or decrease ([5]; serum, GC/MS, freezing and thawing 6 times): 1.33 | Increase or decrease [5, 9]: Increase | Increase or decrease ([5]; detection intensity, serum, GC/MS, freezing and thawing 6 times vs 2 times): Increase | Rate of increase or decrease [6]: 0.56 | Increase or decrease [6]: Decrease

CC(=O)N[C@@H](CO)C(=O)O [N-acetylserine]
Increase or decrease ([1]; after 4 hours vs 15 minutes): Different from individual | Rate of increase or decrease (second value, decrease) ([1]; after 4 hours): 0.66 | Rate of increase or decrease (first value, increase) ([1]; after 4 hours): 1.69 | Increase or decrease ([2]; freezing and thawing 6 times vs 2 times): Different from individual | Rate of increase or decrease (second value, decrease) ([2]; freezing and thawing 6 times): 0.69 | Rate of increase or decrease (first value, increase) ([2]; freezing and thawing 6 times): 1.39 | Rate of increase or decrease ([3]; after 1 hour): 1.69 | Increase or decrease ([3]; after 1 hour vs 30 minutes): Increase | Rate of increase or decrease ([4]; after 12 hours): 1.44 | Increase or decrease ([4]; after 12 hours vs 15 minutes): Increase | Increase or decrease [6]: Different from individual | Rate of increase or decrease (second value, decrease) ([6]; different from individual to individual, individuals with decrease, relative to 1 at 1 minute or less, collection to cooling 5 minutes): 0.69 | Rate of increase or decrease (first value, increase) ([6]; different from individual to individual, individuals with increase, relative to 1 at 1 minute or less, collection to cooling 5 minutes): 1.64
